# In the NIST ThermoML archive (doi:10.1016/j.jct.2008.06.009):
# ± gives the expanded uncertainty stated by the source.
# Settings: Liquid, Bellows volumetry
compound,measurement,setting,value
N [ammonia],mass density,"450 K, 30000 kPa",355.3 ± 1.7 kg/m3
same,mass density,"450 K, 40000 kPa",403.7 ± 1.9 kg/m3
same,mass density,"450 K, 50000 kPa",433.4 ± 2.1 kg/m3
same,mass density,"450 K, 60000 kPa",455.2 ± 2.2 kg/m3
same,mass density,"450 K, 70000 kPa",472.6 ± 2.3 kg/m3
same,mass density,"450 K, 80000 kPa",487.4 ± 2.3 kg/m3
same,mass density,"450 K, 90000 kPa",500.2 ± 2.4 kg/m3
same,mass density,"450 K, 100000 kPa",511.7 ± 2.5 kg/m3
same,mass density,"450 K, 120000 kPa",531.4 ± 2.6 kg/m3
same,mass density,"450 K, 140000 kPa",548.2 ± 2.6 kg/m3
same,mass density,"450 K, 160000 kPa",563.1 ± 2.7 kg/m3
same,mass density,"450 K, 180000 kPa",576.3 ± 2.8 kg/m3
same,mass density,"450 K, 200000 kPa",588.2 ± 2.8 kg/m3
same,mass density,"500 K, 50000 kPa",350.9 ± 1.7 kg/m3
same,mass density,"500 K, 60000 kPa",384.9 ± 1.8 kg/m3
same,mass density,"500 K, 70000 kPa",410.1 ± 2 kg/m3
same,mass density,"500 K, 80000 kPa",430.2 ± 2.1 kg/m3
same,mass density,"500 K, 90000 kPa",446.9 ± 2.1 kg/m3
same,mass density,"500 K, 100000 kPa",461.5 ± 2.2 kg/m3
same,mass density,"500 K, 120000 kPa",485.8 ± 2.3 kg/m3
same,mass density,"500 K, 140000 kPa",505.9 ± 2.4 kg/m3
same,mass density,"500 K, 160000 kPa",523.1 ± 2.5 kg/m3
same,mass density,"500 K, 180000 kPa",538.3 ± 2.6 kg/m3
same,mass density,"500 K, 200000 kPa",551.9 ± 2.6 kg/m3
